Experiments:
[1] = molecular target: c-Cbl (Homo sapiens (Human), UniProt P22681); test: C-Cbl LCK Ub TR-FRET assay (C-cbl Lck HTRF); format: biochemical
Method in brief: (§1)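 After the ubiquitination reaction, detection mixture was added and plates incubated 20 min at room temperature before reading. IC50 values were calculated with wells lacking LCK as the low control and DMSO as the high control.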

[2] = molecular target: Cbl-b (Homo sapiens (Human), UniProt Q13191); test: Cbl-b LCK Ub TR-FRET assay (Cbl-b Lck HTRF); format: biochemical; conditions: for IC50: Cbl-b LCK Ub TR-FRET; for fold-selectivity (Cbl-b over C-cbl): ratio C-cbl Lck HTRF IC50 / Cbl-b Lck HTRF IC50
Method in brief: as §1

Chain of Cbl-b (Q13191 40-426): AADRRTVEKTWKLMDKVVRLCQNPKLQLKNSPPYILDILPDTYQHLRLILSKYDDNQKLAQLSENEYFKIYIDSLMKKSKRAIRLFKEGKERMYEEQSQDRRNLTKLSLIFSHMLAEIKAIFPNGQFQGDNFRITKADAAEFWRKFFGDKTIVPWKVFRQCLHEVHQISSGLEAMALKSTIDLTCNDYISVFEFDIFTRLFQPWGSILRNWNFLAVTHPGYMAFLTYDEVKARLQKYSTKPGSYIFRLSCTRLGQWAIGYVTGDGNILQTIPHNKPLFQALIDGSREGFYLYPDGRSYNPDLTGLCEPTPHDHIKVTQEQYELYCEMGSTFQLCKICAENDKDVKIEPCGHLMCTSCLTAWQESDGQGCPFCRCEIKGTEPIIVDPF
Chain of c-Cbl (P22681 47-435): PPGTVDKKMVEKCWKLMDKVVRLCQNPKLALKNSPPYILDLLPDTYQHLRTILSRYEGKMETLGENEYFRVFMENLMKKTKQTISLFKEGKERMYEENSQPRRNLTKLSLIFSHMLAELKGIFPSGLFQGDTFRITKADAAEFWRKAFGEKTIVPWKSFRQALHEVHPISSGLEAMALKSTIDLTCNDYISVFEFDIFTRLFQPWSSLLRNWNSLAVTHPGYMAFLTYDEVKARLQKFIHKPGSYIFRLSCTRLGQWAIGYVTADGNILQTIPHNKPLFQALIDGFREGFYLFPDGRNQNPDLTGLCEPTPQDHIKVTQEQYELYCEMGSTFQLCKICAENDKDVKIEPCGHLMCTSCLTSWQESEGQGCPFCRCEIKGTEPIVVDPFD

IC50 [1] [µM]	IC50 [2] [µM]	fold-selectivity (Cbl-b over C-cbl) [2] [x]	SMILES
16	8	2.0	Cn1cnnc1[C@@H](C[C@@H]1COCCO1)c1cccc(N2Cc3c(cc(CNC4(C)CCC4)cc3C(F)(F)F)C2=O)c1 [Compound 296, 2-(3-((S)-2-((R)-1,4-dioxan-2-yl)-1-(4-methyl-4H-1,2,4-triazol-3-yl)ethyl)phenyl)-6-(((1-methylcyclobutyl)amino)methyl)-4-(trifluoromethyl)isoindolin-1-one]
3.8	2.5	1.5	Cn1cnnc1[C@@H](c1cccc(N2Cc3c(cc(CNC4(C)CCC4)cc3C(F)(F)F)C2=O)c1)C1CCS(=O)(=O)CC1 [Compound 299, (R)-2-(3-((1,1-dioxidotetrahydro-2H-thiopyran-4-yl)(4-methyl-4H-1,2,4-triazol-3-yl)methyl)phenyl)-6-(((1-methylcyclobutyl)amino)methyl)-4-(trifluoromethyl)isoindolin-1-one]
17	8.7	2.0	Cn1cnnc1[C@H](c1cccc(N2Cc3c(cc(CNC4(C)CCC4)cc3C(F)(F)F)C2=O)c1)C1CCS(=O)(=O)CC1 [Compound 300, (S)-2-(3-((1,1-dioxidotetrahydro-2H-thiopyran-4-yl)(4-methyl-4H-1,2,4-triazol-3-yl)methyl)phenyl)-6-(((1-methylcyclobutyl)amino)methyl)-4-(trifluoromethyl)isoindolin-1-one]
20	7.8	2.6	Cn1cnnc1[C@H](c1cccc(N2Cc3c(cc(CNC4(C)CCC4)cc3C(F)F)C2=O)c1)C1COC1 [Compound 304, (S)-4-(difluoromethyl)-2-(3-((4-methyl-4H-1,2,4-triazol-3-yl)(oxetan-3-yl)methyl)phenyl)-6-(((1-methylcyclobutyl)amino)methyl)isoindolin-1-one]
20	≥ 20	1.0	Cn1cnnc1[C@](C)(O)c1cccc(N2Cc3c(cc(CNC4(C)CCC4)cc3C(F)(F)F)C2=O)c1 [Compound 305, (R)-2-(3-(1-hydroxy-1-(4-methyl-4H-1,2,4-triazol-3-yl)ethyl)phenyl)-6-(((1-methylcyclobutyl)amino)methyl)-4-(trifluoromethyl)isoindolin-1-one]
12	7.6	1.5	Cn1cnnc1[C@](O)(c1cccc(N2Cc3c(cc(CNC4(C)CCC4)cc3C(F)(F)F)C2=O)c1)C(F)(F)F [Compound 307, (R)-6-(((1-methylcyclobutyl)amino)methyl)-2-(3-(2,2,2-trifluoro-1-hydroxy-1-(4-methyl-4H-1,2,4-triazol-3-yl)ethyl)phenyl)-4-(trifluoromethyl)isoindolin-1-one]
20	5.3	3.8	CC(C)[C@@](O)(c1cccc(N2Cc3c(cc(CNC4(C)CCC4)cc3C(F)(F)F)C2=O)c1)c1nncn1C [Compound 309, (R)-2-(3-(1-hydroxy-2-methyl-1-(4-methyl-4H-1,2,4-triazol-3-yl)propyl)phenyl)-6-(((1-methylcyclobutyl)amino)methyl)-4-(trifluoromethyl)isoindolin-1-one]
20	6.8	2.0	CC[C@H](NC1(C)CCC1)c1cc2c(c(C(F)(F)F)c1)CN(c1cccc([C@@H](c3nncn3C)C3COC3)c1)C2=O [Compound 315, 2-(3-((S)-(4-methyl-4H-1,2,4-triazol-3-yl)(oxetan-3-yl)methyl)phenyl)-6-((S)-1-((1-methylcyclobutyl)amino)propyl)-4-(trifluoromethyl)isoindolin-1-one]
